{
  "source": "patent US20040126751A1",
  "about": "(priority 2002, published 2004)",
  "key": {"[1]": {"test_system": "ATP-dependent potassium current (IK(ATP))", "experiment": "whole-cell patch-clamp of pinacidil-primed IK(ATP) in isolated ventricular myocytes", "assay_type": "cell-based, guinea pig", "conditions": "for outward current density at +30 mV under control conditions: before pinacidil", "source_text": "The electrophysiological properties of a cardiac myocyte are strongly affected by its energetic condition. Particularly, the adenosine triphosphate (ATP)-dependent potassium current (IK(ATP)) is known to link bioenergetic metabolism with membrane excitability by sensing intracellular concentrations of ATP and adenosine diphosphate (ADP). Under physiological conditions, ATP-dependent potassium channels (K(ATP)-channels) are predominantly closed due to inhibition by intracellular ATP (ATPi). However, when the ATPi concentration falls below certain values (like in pathological states such as acute myocardial ischaemia), the K(ATP)-channels open. […] Thus, the amount of IK(ATP) activation induced by these drugs serves as an indicator of the intracellular ATP-content.\nIn this example, guinea pig ventricular myocytes were isolated by Langendorff perfusion using collagenase, as is described in H. M. Piper et al., Culturing of calcium stable adult cardiac myocytes, J. Mol. Cell Cardiol. 14 (1982), pp. 397-412. The isolated myocytes were stored in a cell culture medium M 199 (Sigma™, St. Louis, Mo.), supplemented with 5 μg/ml penicillin and 5 IU/ml of streptomycin and were kept in an incubator at 37° C. All experiments were performed within 24 hours after isolation of the myocytes.\nMembrane currents were recorded using the whole-cell single electrode voltage-clamp configuration of the patch-clamp technique (see O. P. Hamill et al., Improved patch-clamp techniques for high-resolution current recording from cells and cell-free membrane patches, Pflüger's Arch. 391 (1981), pp. 85-100) using a List L/M-EPC 7 amplifier (List™, Darmstadt, Germany) as previously described by Pelzmann and coworkers in B. Pelzmann et al., Effects of K^+ channel openers on IK(ATP) of human atrial myocytes at physiological temperatures, Naunyn-Schmiedeberg's Arch. […] Only quiescent rod-shaped cells with clear cross striation were used for voltage-clamp experiments. Cell membrane capacitance (Cm) was determined by integration of the capacitive transient elicited by a 10 mV hyperpolarizing pulse from −50 mV. Cm (up to 100 pF) and series resistance (Rs, by at least 50%) were compensated. Voltage-clamp pulses were generated with an IBM-compatible computer connected to a D/A and A/D converter (Digidata 1200™, Axon Instruments, Foster City, USA). Data acquisition and analyses were performed using pCLAMP 5.7.1 software (Axon Instruments). In order to allow equilibration of the pipette solution with the cytosol, current recordings were started five minutes after rupture of the membrane patch.\nTwo experimental protocols were used in these examples. Modulation of IK(ATP) by drugs was evaluated as the change of outward current density (current amplitudes divided by Cm (pA/pF) in order to compensate for variations in cell size) at +30 mV in response to a 2 second ramp from −100 to +60 mV (Iramp). Time course of IK(ATP) activation and blockade was studied by recording the holding current at −40 mV (Ihold(−40 mV)). Stock solutions of IK(ATP) channel blocker glibenclamide (Sigma™) and of K(ATP) channel opener pinacidil (Sigma™) were prepared in dimethyl sulfoxide (DMSO). Averaged data are expressed as a mean±standard deviation (or standard error of the mean, SEM), with n=number of cells. Error bars in the figures represent standard deviations (except in FIG. 5).\n(§1) Statistical significance was determined by a two-tailed Student's t-test or, if more than two conditions were compared, by one-way analysis of variance (ANOVA) with the LSD (least significant difference) post hoc test. Differences were considered significant when P<0.05."}, "[2]": {"test_system": "cardiomyocytes", "experiment": "HPLC determination of intracellular adenine nucleotide content of cardiomyocytes", "assay_type": "cell-based, guinea pig", "conditions": "four hours", "description": "The analytical method used for the determination of adenine nucleotides was that reported in Hallström, S. et al., “S-nitroso human serum albumin treatment reduces ischemia/reperfusion injury in skeletal muscle via nitric oxide release,” Circulation, 105 (2002), 3023-3038 (“Hallström et al.”). In brief, the only alterations from the analytical method reported by Hallström et al. were as follows: separation was performed on a Hypersil ODS column (5 μm, 250 mm×4 mm I.D.) using a Waters™ 717 plus Autosampler, two constaMetric™ III pumps, a gradient controller (LDC/Milton Roy) and a Waters™ 969 photodiode array detector; detector signals (absorbance at 254 nm) were recorded with an AGC™ Personal Computer; and the program Millennium (Waters™) was used for data requisition and analysis. Cardiomyocytes were deproteinized with 250 μL of 0.4 M/L perchloric acid. After centrifugation (12,000 g), 200 μL of the acid extract were neutralized with 12.5 μL of 2 M potassium carbonate (4° C.). The supernatant (10 μL) obtained after centrifugation was used for High Performance Liquid Chromatography (HPLC) analysis. The pellets of the acid extract were dissolved in 1 mL of 0.1 M sodium hydroxide and further diluted 1:10 with physiologic saline for protein determination (BCA Protein Assay, Pierce). The percentage of living cells was estimated by determining the ratio of the number of rod shaped to rounded myocytes. At least 600 myocytes were counted for each preparation.\nas §1"}, "[3]": {"test_system": "PC 12 cells", "conditions": "NADH-supplementation of PC 12 cells; cited from earlier work"}, "[4]": {"test_system": "rat striatal slices", "conditions": "cited from earlier work"}, "[5]": {"conditions": "incubation in amounts equimolar to 400 μg/ml NADH"}},
  "note": "Where “and” joins values, the source holds several entries; their conditions need not be identical. Equal entries are not always repeated.",
  "data": [
    {"smiles": "COc1ccc(Cl)cc1C(=O)NCCc1ccc(S(=O)(=O)NC(=O)NC2CCCCC2)cc1", "note": "[glibenclamide]", "values": [
      {"measurement": "inhibition of pinacidil-activated IK(ATP)", "setting": "[1]; 1 μM glibenclamide after 30 μM pinacidil", "value": "completely inhibited"},
      {"measurement": "effect on basal Iramp", "setting": "[1]; physiological conditions, 4.3 mM ATPi, data not shown", "value": "did not affect Iramp"}
    ]},
    {"smiles": "NC(=O)c1ccc[n+]([C@@H]2O[C@H](COP(=O)([O-])OP(=O)(O)OC[C@H]3O[C@@H](n4cnc5c(N)ncnc54)[C@H](O)[C@@H]3O)[C@@H](O)[C@H]2O)c1", "note": "[NAD^+, β-nicotinamide adenine dinucleotide, oxidized form]", "values": [
      {"measurement": "outward current density after washout of pinacidil", "setting": "[1]; [5]", "value": "1.44±0.25", "unit": "pA/pF"},
      {"measurement": "outward current density at +30 mV after addition of 30 μM pinacidil", "setting": "[1]; [5]", "value": "29.0±7.01", "unit": "pA/pF"},
      {"measurement": "outward current density at +30 mV under control conditions", "setting": "[1]; [5]", "value": "1.96±0.20", "unit": "pA/pF"}
    ]},
    {"smiles": "NC(=O)C1=CN(C2OC(COP(=O)([O-])OP(=O)([O-])OCC3OC(n4cnc5c(N)ncnc54)C(O)C3O)C(O)C2O)C=CC1.[Na+].[Na+]", "note": "(stereo not drawn) [NADH, β-nicotinamide adenine dinucleotide, reduced form, disodium salt]", "values": [
      {"measurement": "outward current density at +30 mV after application of pinacidil", "setting": "[1]; incubation 200 μg/ml, 30 μM pinacidil, 4.3 mM ATPi", "value": "25.4±3.97", "unit": "pA/pF"},
      {"measurement": "outward current density at +30 mV under control conditions", "setting": "[1]; incubation 200 μg/ml, 4-6 hours", "value": "1.82±0.33", "unit": "pA/pF"},
      {"measurement": "outward current density after washout of pinacidil", "setting": "[1]; incubation 300 μg/ml", "value": "1.09±0.14", "unit": "pA/pF"},
      {"measurement": "outward current density at +30 mV under control conditions", "setting": "[1]; incubation 300 μg/ml, 4-6 hours", "value": "1.72±0.19", "unit": "pA/pF"},
      {"measurement": "outward current density at +30 mV under control conditions", "setting": "[1]; incubation 400 μg/ml, 4-6 hours", "value": "1.70±0.18", "unit": "pA/pF"},
      {"measurement": "outward current density after washout of pinacidil", "setting": "[1]; incubation 800 μg/ml", "value": "1.75±0.48", "unit": "pA/pF"},
      {"measurement": "outward current density at +30 mV under control conditions", "setting": "[1]; incubation 800 μg/ml, 4-6 hours", "value": "1.76±0.36", "unit": "pA/pF"},
      {"measurement": "outward current density at +30 mV under control conditions", "setting": "[1]; incubation 1600 μg/ml, 4-6 hours", "value": "2.53±0.49", "unit": "pA/pF"},
      {"measurement": "ATP content in cardiomyocytes", "setting": "[2]; 400 mcg per ml cell culture medium, control 35.35±2.57", "value": "45.59±1.88 nmol/mg protein of living cells"},
      {"measurement": "ADP content in cardiomyocytes compared to control", "setting": "[2]; 400 mcg per ml", "value": "no significant alteration"},
      {"measurement": "AMP content in cardiomyocytes compared to control", "setting": "[2]; 400 mcg per ml", "value": "no significant alteration"},
      {"measurement": "dopamine production", "setting": "[3]", "value": "increased dopamine production"},
      {"measurement": "dopamine release", "setting": "[4]", "value": "increase of dopamine release"}
    ]},
    {"smiles": "NC(=O)c1cccnc1", "note": "[nicotinamide]", "values": [
      {"measurement": "outward current density after washout of pinacidil", "setting": "[1]; [5]", "value": "1.13±0.15", "unit": "pA/pF"},
      {"measurement": "outward current density at +30 mV after addition of 30 μM pinacidil", "setting": "[1]; [5]", "value": "30.5±4.83", "unit": "pA/pF"},
      {"measurement": "outward current density at +30 mV under control conditions", "setting": "[1]; [5]", "value": "2.01±0.36", "unit": "pA/pF"}
    ]},
    {"smiles": "CC(N/C(=N\\C#N)Nc1ccncc1)C(C)(C)C", "note": "(stereo not drawn) [pinacidil]", "values": [
      {"measurement": "outward current density at +30 mV (Iramp)", "setting": "[1]; 30 μM pinacidil, 1 mM ATPi", "value": "52.2±13.8", "unit": "pA/pF"},
      {"measurement": "outward current density at +30 mV (Iramp)", "setting": "[1]; 30 μM pinacidil, 4.3 mM ATPi, control myocytes", "value": "28.9±3.38 pA/pF and 28.3±3.26 pA/pF"},
      {"measurement": "outward current density at +30 mV after washout", "setting": "[1]; after washout of 30 μM pinacidil (5 minutes), control myocytes", "value": "1.81±0.22 pA/pF and 1.81±0.21 pA/pF"}
    ]}
  ]
}
